Assay results from patent US6818215B2, “Antibodies to senescent cell-derived inhibiters of DNA synthesis” (priority 1991, dated 2004).

Assays:
[1] = tested on: HeLa cells; experiment: Transient transfection of SDI-1, inhibition of DNA synthesis; format: cell-based, human
From the text: (§1) This provides further evidence that SDI-1 behaves like the inhibitor previously detected in senescent cells.

[2] = tested on: WI38 immortal cell line; experiment: as above; format: cell-based, human
From the text: as §1

[3] = tested on: neonatal foreskin cell line (CSC303); experiment: as above; format: cell-based, human
From the text: as §1

[4] = tested on: Breast (T-47 D); experiment: GST-SDI-1 fusion protein, thymidine incorporation; format: cell-based, human
Experimental: (§2) As indicated above, SDI-1 has the capacity to suppress the proliferation of tumor cells. […] In the experiment, 5×10^3 cells were plated overnight at 37° C. (only for adherent cells) and then incubated with the SDI fusion protein. After 48 hours at 37° C., cells were pulsed with thymidine for 24 hours and then harvested. The results of this experiment are shown in Table 8; the thymidine incorporation by untreated cells was expressed as 100%. all determinations were made in quadruplicate.

[5] = tested on: Burkitt Lymphoma (Daudi); experiment: GST-SDI-1 fusion protein, thymidine incorporation; format: cell-based, human; settings: 30 μg/ml
Experimental: as §2

[6] = tested on: Glial (U-251); experiment: GST-SDI-1 fusion protein, thymidine incorporation; format: cell-based, human
Experimental: as §2

[7] = tested on: Hepatocellular (Hep G2); experiment: GST-SDI-1 fusion protein, thymidine incorporation; format: cell-based, human
Experimental: as §2

[8] = tested on: Lung adenocarcinoma (A-549); experiment: GST-SDI-1 fusion protein, thymidine incorporation; format: cell-based, human
Experimental: as §2

[9] = tested on: hamster dihydrofolate reductase (DHFR) promoter; experiment: CAT reporter transcription assay, DHFR-CAT; format: cell-based
Experimental: (§3) The effect of the human SDI-1 on transcription driven by two E2F-responsive promoters was determined. Proliferating A31 cells were transfected with an SDI-1 expression vector in which the SDI-1 cDNA was driven by the strong constitutive cytomegalovirus early promoter (CMV) together with a reporter vector in which the chloramphenicol acetyltransferase (CAT) gene was driven by either the hamster dihydrofolate reductase (DHFR) promoter or the human cdc2 promoter (cdc2-CAT). A31 cells are Balb/c murine 3T3 fibroblasts whose origin and growth properties have been described (Lu, K. et al., Molec. Cell. Biol. 9:3411-3417 (1989); Dimri, G. P et al., J. Biol. Chem. 269:16180-16186 (1994), herein incorporated by reference). Cells were transfected with 2 μg of expression vectors, reporters vectors (for transactivation) and the CMV-β-gal identification/normalization vector using Lipofectamine (Gibco-BRL), as described by Dimri, G. P et al. (J. Biol. Chem. 269:16180-16186 (1994), herein incorporated by reference), The vector backbone was added to the mixture as needed to equalize the amount of transfected DNA. Seventy-two hours later, the cells were lysed and assayed for chloramphenicol acetyl transferase (CAT) and β-galactosidase activity. Both DHFR and cdc2 were expressed by proliferating cells, largely due to E2F-mediated transcription that is dependent on E2F binding sites in the 5′ regulatory regions of these genes (Slansky, J. E. et al., Molec. Cell. Biol. 13:1610-1618 (1993); Dalton, S., EMBO J. 11:1797-1804 (1992)).
(§4) The SDI-1 expression vector, CMV-SDI-1, but not the control vector, suppressed CAT activity driven by either the DHFR or cdc2 promoter (Table 16). CMV-SDI-1 was maximally inhibitory at above 2 μg of DNA under the assay conditions used. CAT activity in Table 16 is reported in counts per minute, normalized to the β-galactosidase activity. At this concentration, CMV-SDI-1 inhibited the DHFR promoter, which contains two strong E2F binding sites (Slansky, J. E. et al., Molec. Cell. Biol. 13:1610-1618 (1993)), somewhat more strongly than the cdc2 promoter, which contains a single E2F binding site (Dalton, S., EMBO J. 11:1797-1804 (1992)) (50-70% inhibition vs 40-50% inhibition). This difference in sensitivity is consistent with the finding that the DHFR promoter is somewhat more sensitive than the cdc2 promoter to stimulation by E2F1, a component of E2F (Dimri, G. P et al., J. Biol. Chem. 269:16180-16186 (1994)). At the concentrations used here, CMV-SDI-1 inhibited DHFR-CAT and cdc2-CAT expression to approximately the same extent that it inhibited DNA replication.

[10] = tested on: human cdc2 promoter; experiment: CAT reporter transcription assay, cdc2-CAT; format: cell-based
Experimental: as §3, §4

[11] = tested on: E2F/p107/cdk/cyclin complexes; experiment: Effect of recombinant SDI-1 on DNA-protein complexes at an E2F binding site in nuclear extracts; format: biochemical; settings: extracts from cells in late G1
From the text: E2F binding sites are occupied by protein complexes, whose composition—at least by in vitro analyses—depend on the cellular growth state and stage of the cell cycle (Chellappan, S. P. et al., Cell 65:1053-1061 (1991); Nevins, J. R., Science 258:424-429 (1992); Farnham, P. J. et al., Biochim. Biophys. Acta 1155:125-131 (1993)). To determine which if any of these complexes might be a target for SDI-1, the effect of recombinant SDI-1 protein on DNA-protein complexes that associate with an E2F binding site in vitro was determined
E2F-1 is induced a few hours prior to S phase (Shan, B. et al., Molec. Cell. Biol. 12:5620-5631 (1992); Slansky, J. E. et al., Molec. Cell. Biol. 13:1610-1618 (1993); Dimri, G. P et al., J. Biol. Chem. 269:16180-16186 (1994)) at about which time nuclear extracts from cells in mid to late G1 contain increased levels of free E2F, E2F in association with pRb, and E2F in association with p107, cdk2 and cyclin E (mid-late G1-early S). Of the complexes present in extracts from cells in late G1, only the E2F/p107/cdk/cyclin complexes were disrupted by recombinant SDI-1.

“SDI-1: senescent cell derived inhibitor of DNA synthesis, 164 amino acid protein, SEQ ID NO:2” was tested, and the “inhibition (DNA synthesis)” value [1] was under 20%, the “inhibition (DNA synthesis)” value [2] was 40-50% and the “inhibition (DNA synthesis)” value [3] was 40-50%. The “Relative Cell (% of Control)” value ([4]; 30 μg/ml) was 2 ± 0 % of Control, the “Relative Cell (% of Control)” value ([4]; 50 μg/ml) was 2 ± 0 % of Control and the “Relative Cell (% of Control)” value [5] was 3 ± 0 % of Control. For the same substance, the “Relative Cell (% of Control)” value ([6]; 30 μg/ml) was 66 ± 4 % of Control, the “Relative Cell (% of Control)” value ([6]; 50 μg/ml) was 35 ± 2 % of Control and the “Relative Cell (% of Control)” value ([7]; 30 μg/ml) was 21 ± 3 % of Control. For the same substance, the “Relative Cell (% of Control)” value ([7]; 50 μg/ml) was 12 ± 2 % of Control, the “Relative Cell (% of Control)” value ([8]; 30 μg/ml) was 40 ± 1 % of Control and the “Relative Cell (% of Control)” value ([8]; 50 μg/ml) was 25 ± 3 % of Control. For the same substance, the “% Activity” value ([9]; SDI-1 0.2 μg, A31 cells) was 97%, the “% Inhibition” value ([9]; SDI-1 0.2 μg, A31 cells) was 4% and the “Normalized CAT Activity” value ([9]; SDI-1 0.2 μg, A31 cells) was 9155 counts per minute. For the same substance, the “% Activity” value ([9]; SDI-1 1.0 μg) was 87%, the “% Inhibition” value ([9]; SDI-1 1.0 μg) was 13% and the “Normalized CAT Activity” value ([9]; SDI-1 1.0 μg) was 8196 counts per minute. For the same substance, the “% Activity” value ([9]; SDI-1 2.0 μg) was 28%, the “% Inhibition” value ([9]; SDI-1 2.0 μg) was 72% and the “Normalized CAT Activity” value ([9]; SDI-1 2.0 μg) was 2613 counts per minute. The “% Activity” value ([9]; SDI-1 4.0 μg) was 19%, the “% Inhibition” value ([9]; SDI-1 4.0 μg) was 81% and the “Normalized CAT Activity” value ([9]; SDI-1 4.0 μg) was 1757 counts per minute. The “Transcription (Normalized) % Activity” value ([10]; A31 cells (Table 17)) was 52%, the “Transcription (Normalized) % Inhibition” value ([10]; A31 cells (Table 17)) was 48% and the “% Activity” value ([10]; SDI-1 1.0 μg) was 50%. The “% Inhibition” value ([10]; SDI-1 1.0 μg) was 50%, the “Normalized CAT Activity” value ([10]; SDI-1 1.0 μg) was 1664 counts per minute and the “% Activity” value ([10]; SDI-1 2.0 μg) was 60%. For the same substance, the “% Inhibition” value ([10]; SDI-1 2.0 μg) was 40%, the “Normalized CAT Activity” value ([10]; SDI-1 2.0 μg) was 2000 counts per minute and the “% Activity” value ([10]; SDI-1 4.0 μg) was 61%. The “% Inhibition” value ([10]; SDI-1 4.0 μg) was 39%, the “Normalized CAT Activity” value ([10]; SDI-1 4.0 μg) was 2008 counts per minute and the “effect on E2F/p107/cdk/cyclin complexes” value [11] was “disrupted”.
